Experimental data reported in US11076595B2, “1-(n,n-disubstituted carbamoyl) 4-(substituted sulfonyl)triazolin-5-one derivative, 4-(n,n-disubstituted carbamoyl) 1-(substituted sulfonyl)triazolin-5-one derivative, and herbicide containing said derivative as active ingredient” (HOKKO CHEMICAL INDUSTRY CO., LTD., priority 2017, dated 2021).

How the values were obtained:
Type in all cases: in vivo
[1] = system: crabgrass; experiment: Test Example 14: herbicidal effect test by foliage treatment in upland field; conditions: 7 days after sowing, 120 g/10a, 14 days after treatment
Procedure, shortened: (§1)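 Emulsifiable concentrate, water-diluted, is applied post-emergence to 7-day-old sowings in field soil at 120 g active ingredient per 10 are. The weed suppression rate derives from average dry weights versus untreated controls, measured 14 days later.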

[2] = system: Chenopodium album; experiment: as above; conditions: 7 days after sowing, 120 g/10a, 14 days after treatment
Procedure, shortened: as §1

[3] = system: Lindernia pyxidaria; experiment: Test Example 11: herbicidal effect test by soil treatment in paddy field; conditions: 120 g/10a active ingredient, 14 days after treatment
Procedure, shortened: (§2)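 Pre-emergence paddy test, 120 g a.i./10 are, emulsifiable concentrate diluted in water and added dropwise to ~3 cm flood water right after sowing (30 seeds/species, 0–1 cm depth, fertilized puddled soil). Greenhouse; 2 replicates; dry-weight suppression (%) vs untreated, day 14.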

[4] = system: Scirpus juncoides; experiment: as above; conditions: 120 g/10a active ingredient, 14 days after treatment
Procedure, shortened: as §2

[5] = system: Echinochloa crus-galli; experiment: as above; conditions: 120 g/10a active ingredient, 14 days after treatment
Procedure, shortened: as §2

[6] = system: Monochoria vaginalis; experiment: as above; conditions: 120 g/10a active ingredient, 14 days after treatment
Procedure, shortened: as §2

[7] = system: Lindernia pyxidaria; experiment: Test Example 12: herbicidal effect test by treatment during growing period in paddy field; conditions: 120 g/10a; treatment seven days after sowing in flooded paddy pot; assessed 14 days after treatment
Procedure, shortened: (§3)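 Weed suppression (%) = (1 − treated/untreated mean dry weight) × 100, scored 14 days after treatment with two replicates per plot. Dose 120 g a.i. per 10 are, as diluted emulsifiable concentrate added dropwise to flooded pots (water about 3 cm) 7 days post-sowing, seeds at 0-1 cm.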

[8] = system: Scirpus juncoides; experiment: as above; conditions: 120 g/10a; treatment seven days after sowing in flooded paddy pot; assessed 14 days after treatment
Procedure, shortened: as §3

[9] = system: Echinochloa crus-galli; experiment: as above; conditions: 120 g/10a; treatment seven days after sowing in flooded paddy pot; assessed 14 days after treatment
Procedure, shortened: as §3

[10] = system: Monochoria vaginalis; experiment: as above; conditions: 120 g/10a; treatment seven days after sowing in flooded paddy pot; assessed 14 days after treatment
Procedure, shortened: as §3

[11] = system: Amaranthus viridis; experiment: Test Example 13: herbicidal effect test by soil treatment in upland field; conditions: 120 g/10a, 14 days after treatment
Procedure, shortened: (§4)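 Pre-emergence soil spray, 1 d post-sowing; emulsifiable concentrate in water, 100 L/10 are, 120 g a.i./10 are. Pots 36 cm^2, alluvial soil, 20 seeds/species in top 1 cm. n=2; read 14 d; suppression % = (1 − treated/untreated mean dry weight) × 100.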

[12] = system: crabgrass; experiment: as above; conditions: 120 g/10a, 14 days after treatment
Procedure, shortened: as §4

[13] = system: Chenopodium album; experiment: as above; conditions: 120 g/10a, 14 days after treatment
Procedure, shortened: as §4

[14] = system: Echinochloa crus-galli; experiment: as above; conditions: 120 g/10a, 14 days after treatment
Procedure, shortened: as §4

[15] = system: Amaranthus viridis; experiment: Test Example 14: herbicidal effect test by foliage treatment in upland field; conditions: 7 days after sowing, 120 g/10a, 14 days after treatment
Procedure, shortened: as §1

[16] = system: Echinochloa crus-galli; experiment: as above; conditions: 7 days after sowing, 120 g/10a, 14 days after treatment
Procedure, shortened: as §1

Row | Structure (SMILES) | herbicidal effect, Crabgrass [1] [%] | herbicidal effect, Chenopodium album [2] [%] | Weed suppression rate (%) Lindemia pyxidaria [3] [%] | Weed suppression rate (%) Scirpus juncoides [4] [%] | Weed suppression rate (%) Echinochloa crus-galli [5] [%] | Weed suppression rate (%) Monochoria vaginalis [6] [%] | Weed suppression rate (%) Lindemia pyxidaria [7] [%] | Weed suppression rate (%) Scirpus juncoides [8] [%] | Weed suppression rate (%) Echinochloa crus-galli [9] [%] | Weed suppression rate (%) Monochoria vaginalis [10] [%] | herbicidal effect, Amaranthus viridis [11] [%] | herbicidal effect, Crabgrass [12] [%] | herbicidal effect, Chenopodium album [13] [%] | herbicidal effect, Echinochloa crus-galli [14] [%] | herbicidal effect, Amaranthus viridis [15] [%] | herbicidal effect, Echinochloa crus-galli [16] [%]
1 | CC(C)N(C(=O)n1cnn(S(=O)(=O)C2CCCCC2)c1=O)c1ccc(F)cc1Cl [Compound 11-301] | 90 | 80 | 80 | 90 | 90 | 80 | 80 | 90 | 90 | 80 | 90 | 90 | 80 | 80 | 90 | 80
2 | CC(C)CS(=O)(=O)n1ncn(C(=O)N(c2ccc(F)cc2F)C(C)C)c1=O [Compound 11-94] | 90 | 90 | 100 | 90 | 100 | 100 | 100 | 90 | 100 | 90 | 80 | 100 | 90 | 100 | 50 | 90
3 | Cc1cc(C)c(S(=O)(=O)n2ncn(C(=O)N(c3ccc(F)cc3F)C(C)C)c2=O)c(C)c1 [Compound 11-863] | 60 | 70 | 100 | 100 | 100 | 100 | 90 | 90 | 90 | 90 | 50 | 70 | 50 | 60 | 50 | 70
4 | CC(C)N(C(=O)n1cnn(S(C)(=O)=O)c1=O)c1ccc(F)cc1F [Compound 11-12] | 90 | 90 | 100 | 100 | 100 | 100 | 100 | 90 | 100 | 90 | 100 | 100 | 90 | 100 | 80 | 90
5 | CC(C)N(C(=O)n1cnn(S(C)(=O)=O)c1=O)c1ccc(Cl)cn1 [Compound 11-38] | 90 | 0 | 80 | 70 | 100 | 70 | 90 | 90 | 100 | 80 | 0 | 90 | 40 | 90 | 0 | 90
